Reference: patent US20250340561A1, “QUINAZOLINE COMPOUND FOR INDUCING DEGRADATION OF G12D MUTANT KRAS PROTEIN” (Astellas Pharma Inc., priority 2021, published 2025)

System: human KRAS G12D mutant-positive PK-59 pancreatic cancer cell line-derived xenograft
Assay: Test Example 4: anti-tumor activity in PK-59 xenograft mice
Type: in vivo
Conditions: PK-59 xenograft nude mice, 10 mg/kg into tail vein, twice with an interval of once a week
Description: Test Example 4: Evaluation of Anti-Tumor Activity in Human KRAS G12D Mutant-Positive PK-59 Pancreatic Cancer Cell Line-Derived Xenograft Mice
PK-59 cells (RTKEN BRC, RCB 1901) were cultured using a RPMI 1640 medium containing 10% fetal bovine serum in the presence of 5% CO2 at 37° C. The PK-59 cells were collected and suspended in PBS, and after adding an equal amount of Matrigel (from Becton, Dickinson and Company), the cell suspension prepared at 1.0×10^7 to 2.0×10^7 cells/mL was subcutaneously inoculated in a volume of 100 μL in 4- to 6-week-old male nude mice (CAnN.Cg-Foxn1^nu/CrlCrlj (nu/nu), from Charles River Laboratories Japan). About two weeks after the inoculation, the mice were divided into groups so that all the groups had approximately the same tumor volume and body weight, and administration of test compounds was started on the next day. The study was conducted for 5 mice each of a vehicle group and test compound administration groups. The compounds of Example 8, Example 48 and Example 70 were dissolved in a solvent containing ethanol (from FUJIFILM Wako Pure Chemical Corporation), a 5% glucose solution (from Otsuka Pharmaceutical), 1M hydrochloric acid (from Kanto Chemical Co., Inc.), an aqueous 50% (2-hydroxypropyl)-β-cyclodextrin (HP-βCD) solution (from ROQUETTE), HCO-40 (from Nikko Chemicals Co., Ltd.) and an aqueous 1M sodium hydroxide solution (from Kanto Chemical Co., Inc.) at a liquid amount ratio of 4:84.4:1.1:1:9:0.5. The compounds of Example 22 and Example 26 were dissolved in a solvent containing propylene glycol (from FUJIFILM Wako Pure Chemical Corporation), Tween80 (from Nacalai Tesque) and Otsuka normal saline (from Otsuka Pharmaceutical) at a liquid amount ratio of 6.7:3.3:90. The compound of Example 39 was dissolved in a solvent containing propylene glycol, ethanol, an aqueous 50% HP-PCD solution, HCO-40 and a 5% glucose solution at a liquid amount ratio of 10:8:10:10:62. The test compounds dissolved in the respective solvents or the solvents were administered into tail vein. The administration was performed twice with an interval of once a week. The tumor sizes and the body weights were measured twice a week. The tumor volumes were calculated using the following equation.
[Tumor volume (mm^3)]=[Major axis of tumor (mm)]×[Minor axis of tumor (mm)]^2×0.5
The tumor growth inhibitions (%) by the test compounds were calculated with the tumor volumes of the test compound administration groups on the previous day of the start of the administration taken as 100% inhibition and the tumor volumes of the vehicle groups two weeks after the initial administration taken as 0% inhibition. In addition, when the tumor volume of a test compound administration group was smaller than the tumor volume on the previous day of the start of the administration, the tumor regression (%) by the test compound was calculated with the tumor volume on the previous day of the start of the administration taken as 0% regression and with the tumor volume 0 taken as 100% regression. The molecular weights of the test compounds were calculated as the molecular weights of the dihydrochloride for Example No. 22 and the free forms forming no salt for the remaining Example Nos. The results for some test compounds of the formula (I) are shown in Table 5.

| SMILES | Anti-Tumor Activity Two Weeks After Initial Administration (tumor growth inhibition) [% inhibition] | Anti-Tumor Activity Two Weeks After Initial Administration (tumor regression) [% regression] |
| --- | --- | --- |
| Cc1c(F)cc2[nH]ncc2c1-c1c(C2CC2)cc2c(N3C[C@@H]4C[C@H]3CN4)nc(OC3CCOCC3)nc2c1OCc1ccc(-c2cn([C@H](C(=O)N3C[C@H](O)C[C@H]3C(=O)N[C@@H](CO)c3ccc(-c4ccnn4C)cc3)C(C)C)nn2)cc1 [Example 22] | 93 |  |
| CCn1nccc1-c1ccc([C@H](CO)NC(=O)[C@@H]2C[C@@H](O)CN2C(=O)[C@H](C(C)C)n2cc(-c3ccc(COc4c(-c5c(C)c(F)cc6[nH]ncc56)c(C5CC5)cc5c(N6C[C@@H]7C[C@H]6CN7)nc(OC6CCOCC6)nc45)cc3)nn2)cc1 [Example 26] | 94 |  |
| CO[C@H](C)[C@@H](C)Oc1nc(N2C[C@@H]3C[C@H]2CN3)c2cc(C3CC3)c(-c3c(C)c(F)cc4[nH]ncc34)c(OCc3ccc(-c4cn([C@H](C(=O)N5C[C@H](O)C[C@H]5C(=O)N[C@@H](CO)c5ccc(-c6scnc6C)cc5)C(C)C)nn4)cc3)c2n1 [Example 39] |  | 13 |
| CO[C@@H](C)COc1nc(N2C[C@@H]3C[C@H]2CN3)c2cc(C3CC3)c(-c3c(C)c(F)cc4[nH]ncc34)c(OCc3ccc(-c4cn([C@H](C(=O)N5C[C@H](O)C[C@H]5C(=O)N[C@@H](CO)c5ccc(-c6scnc6C)cc5)C(C)C)nn4)cc3)c2n1 [Example 48] |  | 32 |
| Cc1ncsc1-c1ccc([C@H](CO)NC(=O)[C@@H]2C[C@@H](O)CN2C(=O)[C@H](C(C)C)n2cc(-c3ccc(COc4c(-c5c(C)c(F)cc6[nH]ncc56)c(C5CC5)cc5c(N6C[C@@H]7C[C@H]6CN7)nc(OC6CCOCC6)nc45)cc3)nn2)cc1 [Example 8, (4R)-1-[(2S)-2-(4-{4-[({6-cyclopropyl-4-[(1S,4S)-2,5-diazabicyclo[2.2.1]heptan-2-yl]-7-(6-fluoro-5-methyl-1H-indazol-4-yl)-2-[(oxan-4-yl)oxy]quinazolin-8-yl}oxy)methyl]phenyl}-1H-1,2,3-triazol-1-yl)-3-methylbutanoyl]-4-hydroxy-N-{(1R)-2-hydroxy-1-[4-(4-methyl-1,3-thiazol-5-yl)phenyl]ethyl}-L-prolinamide] | 98 |  |
| CCn1nccc1-c1ccc([C@H](CO)NC(=O)[C@@H]2C[C@@H](O)CN2C(=O)[C@H](C(C)C)n2cc(-c3ccc(COc4c(-c5c(C)c(F)cc6[nH]ncc56)c(C5CC5)cc5c(N6C[C@@H]7C[C@H]6CN7)nc(OC[C@H](C)OC)nc45)cc3)nn2)cc1 [Example 70] |  | 42 |
